Data reported in ChEMBL document CHEMBL1201862, “PubChem BioAssay data set” (2004).
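The compound was tested at five concentrations on cells cultured in 96-well plates, with a 48-hour exposure period. Here, GI50 denotes the concentration required for 50% inhibition of growth.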 Active and inactive are the calls of the source. Rule as the data show it: active = GI50 up to about 1.1 µM and inactive = higher.

How the values were obtained:
Assay in all cases: inhibition of tumour cell growth, NCI panel, 48 h
RPMI-8226 = test system: RPMI-8226
NCI-H460 = test system: NCI-H460
LOX IMVI = test system: LOX IMVI
HOP-92 = test system: HOP-92
U-251 = test system: U-251
IGROV-1 = test system: IGROV-1
NCI-H23 = test system: NCI-H23
SNB-19 = test system: SNB-19
SW-620 = test system: SW-620
HOP-62 = test system: HOP-62
SK-MEL-28 = test system: SK-MEL-28
K562 = test system: K562
SNB-75 = test system: SNB-75
MOLT-4 = test system: MOLT-4
HCC 2998 = test system: HCC 2998
SK-MEL-2 = test system: SK-MEL-2
CAKI-1 = test system: CAKI-1
TK-10 = test system: TK-10
ACHN = test system: ACHN
UO-31 = test system: UO-31

Measured: GI50

Cc1ccc(S(=O)(=O)OCCOCCOCCOCCOCCOS(=O)(=O)c2ccc(C)cc2)cc1
inactive: RPMI-8226 33.5 µM | NCI-H460 36.7 µM | LOX IMVI 45.2 µM | HOP-92 35.7 µM | U-251 58.3 µM | IGROV-1 79.8 µM | NCI-H23 21.3 µM | SNB-19 > 100 µM | SW-620 91.2 µM | HOP-62 30.1 µM | SK-MEL-28 > 100 µM | K562 31.7 µM | SNB-75 > 100 µM | MOLT-4 14.4 µM | HCC 2998 41.6 µM | SK-MEL-2 41.5 µM | CAKI-1 47.1 µM | TK-10 36.7 µM | ACHN 36.6 µM | UO-31 28.8 µM

C[N+](C)(C)c1ncnc2c1ncn2C1CC(O)C(CO)O1 (stereo not given)
inactive: RPMI-8226 > 100 µM | NCI-H460 > 100 µM | LOX IMVI > 100 µM | HOP-92 > 100 µM | U-251 > 100 µM | IGROV-1 > 100 µM | NCI-H23 > 100 µM | SNB-19 > 100 µM | SW-620 > 100 µM | HOP-62 > 100 µM | SK-MEL-28 > 100 µM | K562 > 100 µM | SNB-75 > 100 µM | MOLT-4 > 100 µM | HCC 2998 > 100 µM | SK-MEL-2 > 100 µM | CAKI-1 > 100 µM | TK-10 > 100 µM | ACHN > 100 µM | UO-31 > 100 µM

CCCCCCCCCCCCNC(=S)OC
inactive: RPMI-8226 7.98 µM | NCI-H460 17.3 µM | LOX IMVI 15.2 µM | HOP-92 7.08 µM | U-251 16 µM | IGROV-1 11.5 µM | NCI-H23 17.8 µM | SNB-19 24.7 µM | SW-620 16.6 µM | HOP-62 18 µM | SK-MEL-28 16.9 µM | K562 17.5 µM | SNB-75 16.8 µM | MOLT-4 2.16 µM | HCC 2998 18.2 µM | SK-MEL-2 16.8 µM | CAKI-1 14.8 µM | TK-10 19.5 µM | ACHN 17.9 µM | UO-31 4.13 µM
